pIC50: −log10 of the molar value.
Biological target: PI3Kδ (p110δ/p85α) (Homo sapiens (Human), UniProt O00329)
Test: PI3Kδ scintillation proximity assay (Example A3)
Type: biochemical
Conditions: 20 μM ATP, 4 nM PI3Kδ, read-out: PI3Kδ SPA IC50
Procedure: [γ-^33P]ATP (10 mCi/mL) was purchased from Perkin-Elmer (Waltham, Mass.). […] PI3Kδ (p110δ/p85α) was purchased from Millipore (Bedford, Mass.). ATP, MgCl2, DTT, EDTA, MOPS and CHAPS were purchased from Sigma-Aldrich (St. Louis, Mo.). Wheat Germ Agglutinin (WGA) YSi SPA Scintillation Beads was purchased from GE healthcare life sciences (Piscataway, N.J.).
The kinase reaction was conducted in polystyrene 384-well matrix white plate from Thermo Fisher Scientific in a final volume of 25 μL. Inhibitors were first diluted serially in DMSO and added to the plate wells before the addition of other reaction components. The final concentration of DMSO in the assay was 0.5%. The PI3K assays were carried out at room temperature in 20 mM MOPS, pH 6.7, 10 mM MgCl2, 5 mM DTT and CHAPS 0.03%. Reactions were initiated by the addition of ATP, the final reaction mixture consisted of 20 μM PIP2, 20 μM ATP, 0.2 μCi [γ-^33P] ATP, 4 nM PI3Kδ. […] 25 mM EDTA, 400 μM ATP. The final concentration of SPA beads was 1.0 mg/mL. After the plate sealing, plates were shaken overnight at room temperature and centrifuged at 1800 rpm for 10 minutes, the radioactivity of the product was determined by scintillation counting on Topcount (Perkin-Elmer). IC50 determination was performed by fitting the curve of percent control activity versus the log of the inhibitor concentration using the GraphPad Prism 3.0 software.

Chain of PI3Kδ (p110δ/p85α) (O00329 whole entry, species assumed): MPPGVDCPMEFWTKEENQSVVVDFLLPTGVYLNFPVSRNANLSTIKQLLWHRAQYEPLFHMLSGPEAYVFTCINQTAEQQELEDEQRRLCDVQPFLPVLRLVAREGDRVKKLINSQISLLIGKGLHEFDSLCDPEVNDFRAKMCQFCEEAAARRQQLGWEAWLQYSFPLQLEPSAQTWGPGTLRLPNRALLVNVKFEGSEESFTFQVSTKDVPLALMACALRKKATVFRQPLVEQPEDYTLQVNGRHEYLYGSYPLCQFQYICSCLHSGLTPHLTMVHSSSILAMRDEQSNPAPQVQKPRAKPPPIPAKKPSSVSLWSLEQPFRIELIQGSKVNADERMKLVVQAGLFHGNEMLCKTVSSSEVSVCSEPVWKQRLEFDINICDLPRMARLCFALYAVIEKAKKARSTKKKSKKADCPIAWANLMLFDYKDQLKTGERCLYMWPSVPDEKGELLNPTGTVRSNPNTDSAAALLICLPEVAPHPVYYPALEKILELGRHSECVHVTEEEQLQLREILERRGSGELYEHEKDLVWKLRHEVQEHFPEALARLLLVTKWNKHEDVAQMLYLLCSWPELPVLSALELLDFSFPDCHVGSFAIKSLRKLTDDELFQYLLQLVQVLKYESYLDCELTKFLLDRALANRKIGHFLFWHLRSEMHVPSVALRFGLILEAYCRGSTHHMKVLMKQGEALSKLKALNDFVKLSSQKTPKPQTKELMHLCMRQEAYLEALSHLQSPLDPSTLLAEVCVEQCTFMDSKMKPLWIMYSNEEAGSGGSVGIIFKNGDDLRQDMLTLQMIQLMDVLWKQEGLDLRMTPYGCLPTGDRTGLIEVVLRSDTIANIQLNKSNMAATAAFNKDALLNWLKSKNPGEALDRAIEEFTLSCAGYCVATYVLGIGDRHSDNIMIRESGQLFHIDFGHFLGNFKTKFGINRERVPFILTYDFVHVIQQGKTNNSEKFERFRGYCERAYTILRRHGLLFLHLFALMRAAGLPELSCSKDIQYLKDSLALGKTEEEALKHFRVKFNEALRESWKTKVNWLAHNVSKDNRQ
Chain of PI3Kδ (p110δ/p85α) (P27986 whole entry partner, species assumed): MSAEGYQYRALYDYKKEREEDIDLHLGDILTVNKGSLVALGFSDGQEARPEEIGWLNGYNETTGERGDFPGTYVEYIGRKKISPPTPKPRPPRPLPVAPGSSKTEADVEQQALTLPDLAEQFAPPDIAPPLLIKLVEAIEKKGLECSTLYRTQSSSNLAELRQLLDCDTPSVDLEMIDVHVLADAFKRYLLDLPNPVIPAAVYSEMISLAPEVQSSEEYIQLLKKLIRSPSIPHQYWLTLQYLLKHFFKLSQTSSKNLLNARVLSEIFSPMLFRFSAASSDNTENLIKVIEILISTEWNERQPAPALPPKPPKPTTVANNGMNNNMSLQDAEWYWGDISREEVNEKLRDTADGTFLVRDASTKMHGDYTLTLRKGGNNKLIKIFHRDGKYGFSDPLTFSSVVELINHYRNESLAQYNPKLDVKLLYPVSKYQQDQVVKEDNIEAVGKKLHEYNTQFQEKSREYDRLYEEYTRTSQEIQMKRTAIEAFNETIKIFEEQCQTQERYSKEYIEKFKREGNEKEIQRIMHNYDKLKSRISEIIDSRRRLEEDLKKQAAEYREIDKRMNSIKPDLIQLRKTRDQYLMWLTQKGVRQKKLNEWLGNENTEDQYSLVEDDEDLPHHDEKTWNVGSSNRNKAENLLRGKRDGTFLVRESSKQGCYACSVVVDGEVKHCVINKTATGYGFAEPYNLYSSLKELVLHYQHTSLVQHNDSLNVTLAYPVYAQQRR

| SMILES | pIC50 |
| --- | --- |
| COc1c(C(C)n2nc(C)c3c(N)ncnc32)cc(Cl)c(F)c1C1CN(C[C@H](C)O)C1 (single isomer, unassigned) [68 (2nd peak)] | > 8.00 |
| COc1c(C(C)n2nc(C)c3c(N)ncnc32)cc(Cl)c(C)c1CC#N (centres unmarked) [Example 194, {3-[1-(4-Amino-3-methyl-1H-pyrazolo[3,4-d]pyrimidin-1-yl)ethyl]-5-chloro-2-methoxy-6-methylphenyl}acetonitrile] | > 8.00 |
| CCOc1c(C(C)n2nc(C)c3c(N)ncnc32)cc(Cl)c(C)c1-c1cnn(CC(N)=O)c1 (centres unmarked) [Example 203, 2-(4-(3-(1-(4-Amino-3-methyl-1H-pyrazolo[3,4-d]pyrimidin-1-yl)ethyl)-5-chloro-2-ethoxy-6-methylphenyl)-1H-pyrazol-1-yl)acetamide] | > 8.00 |
| CCOc1c(C(C)n2nc(C)c3c(N)ncnc32)cc(Cl)c(C)c1-c1ccc(C(=O)N(C)C)cn1 (centres unmarked) [Example 208, 6-{3-[1-(4-Amino-3-methyl-1H-pyrazolo[3,4-d]pyrimidin-1-yl)ethyl]-5-chloro-2-ethoxy-6-methylphenyl}-N,N-dimethylnicotinamide bis(trifluoroacetate)] | > 8.00 |
| CCOc1c(C(C)n2nc(C)c3c(N)ncnc32)cc(Cl)c(C)c1C#N (centres unmarked) [Example 211, 3-[1-(4-Amino-3-methyl-1H-pyrazolo[3,4-d]pyrimidin-1-yl)ethyl]-5-chloro-2-ethoxy-6-methylbenzonitrile] | > 8.00 |
| Cc1c(Cl)cc(C(C)n2nc(C)c3c(N)ncnc32)c(OCC(F)F)c1-c1ccc(C(=O)N(C)C)nc1 (centres unmarked) [Example 189, 5-(3-(1-(4-Amino-3-methyl-1H-pyrazolo[3,4-d]pyrimidin-1-yl)ethyl)-5-chloro-2-(2,2-difluoroethoxy)-6-methylphenyl)-N,N-dimethylpicolinamide bis(2,2,2-trifluoroacetate)] | > 8.00 |

More lines, now with the values ahead:

| pIC50 | SMILES |
| --- | --- |
| > 8.00 | Cc1c(Cl)cc(C(C)n2nc(C)c3c(N)ncnc32)c(OCC2CC2)c1-c1ccc(C(=O)N(C)C)nc1 (centres unmarked) [Example 190, 5-(3-(1-(4-Amino-3-methyl-1H-pyrazolo[3,4-d]pyrimidin-1-yl)ethyl)-5-chloro-2-(cyclopropylmethoxy)-6-methylphenyl)-N,N-dimethylpicolinamide bis(2,2,2-trifluoroacetate)] |
| > 8.00 | COc1c(C(C)n2nc(C)c3c(N)ncnc32)cc(Cl)c(C)c1-c1cncc(C(=O)N(C)C2CC2)c1 (centres unmarked) [Example 174, 5-(3-(1-(4-Amino-3-methyl-1H-pyrazolo[3,4-d]pyrimidin-1-yl)ethyl)-5-chloro-2-methoxy-6-methylphenyl)-N-cyclopropyl-N-methylnicotinamide bis(2,2,2-trifluoroacetate)] |
| > 8.00 | COc1c(C(C)n2nc(C)c3c(N)ncnc32)cc(Cl)c(C)c1-c1ccc(NCCO)nc1 (centres unmarked) [Example 184, 2-[(5-{3-[1-(4-Amino-3-methyl-1H-pyrazolo[3,4-d]pyrimidin-1-yl)ethyl]-5-chloro-2-methoxy-6-methylphenyl}pyridin-2-yl)amino]ethanol] |
| > 8.00 | COc1c(C(C)n2nc(C)c3c(N)ncnc32)cc(Cl)c(C)c1-c1ccc(OCCO)nc1 (centres unmarked) [Example 188, 2-(5-(3-(1-(4-Amino-3-methyl-1H-pyrazolo[3,4-d]pyrimidin-1-yl)ethyl)-5-chloro-2-methoxy-6-methylphenyl)pyridin-2-yloxy)ethanol] |
| > 8.00 | COc1c(C(C)n2nc(C(F)F)c3c(N)ncnc32)cc(Cl)c(C)c1-c1ccc(C(=O)N(C)C)nc1 (centres unmarked) [Example 191, 5-(3-{1-[4-Amino-3-(difluoromethyl)-1H-pyrazolo[3,4-d]pyrimidin-1-yl]ethyl}-5-chloro-2-methoxy-6-methylphenyl)-N,N-dimethylpyridine-2-carboxamide] |
